Reference: PMC13210772, “Dual FLT3/MAPK14 Proteolysis-Targeting Chimera (PROTAC) Induces Potent Acute Myeloid Leukemia Cell Death” (Pharmaceuticals, 2026)
Values belong to the compound of their own block, whether it stands above or below them.

Legend:
MOLM-14 = system: MOLM-14; set-up: method as in PMID 36518702; details: reported FLT3 PROTAC, Figure 1; cited from earlier work
MV4-11 = system: MV4-11; set-up: method as in PMID 30427680, PMID 34959180, PMID 34694800, PMID 36332882, PMID 38655686; details: reported FLT3 PROTACs, Figure 1; cited from earlier work
FLT3-ITD [1] = experiment: KINOMEscan binding assay
Experimental: Binding to FLT3-ITD was determined using the KINOMEscan^TM assay (Eurofins DiscoverX Corporation, San Diego, CA, USA)
Kinase-tagged T7 phage strains were prepared in an E. coli host derived from the BL21 strain. E. coli were grown to log-phase and infected with T7 phage and incubated with shaking at 32 °C until lysis. The lysates were centrifuged and filtered to remove cell debris. The remaining kinases were produced in HEK-293 cells and subsequently tagged with DNA for qPCR detection. […] The liganded beads were blocked with excess biotin and washed with blocking buffer (SeaBlock (Pierce), 1% BSA, 0.05% Tween 20, 1 mM DTT) to remove unbound ligand and to reduce non-specific binding. […] The compounds were then diluted directly into the assays such that the final concentration of DMSO was 0.9%. All reactions performed in polypropylene 384-well plate. Each was a final volume of 0.02 mL. […] The kinase concentration in the eluates was measured by qPCR.

MAPK14 [2] = target: T1, MAPK14 (Homo sapiens, UniProt Q16539); experiment: Phosphorylation of MAPK14, immunoblot in MV4-11 cells; type: cell-based; set-up: endogenous in cells; host or cells: K562, RS4-11, MV4-11, MOLM-13 (A17); MV4-11 (A20)
MAPK14 [3] = target: T1, MAPK14; experiment: MAPK14 degradation, immunoblot in leukemia cells; type: cell-based; set-up: endogenous in cells; host or cells: K562, RS4-11, MV4-11, MOLM-13 (A17); MV4-11 (A20); details: K562, RS4-11, MV4-11 and MOLM-13 cells; 50 nM MA191, 24 h
FLT3-ITD [4] = target: T2, FLT3-ITD (Homo sapiens, UniProt P36888, INS600HVDFREYEYD); experiment: Phosphorylation of FLT3-ITD, immunoblot in MV4-11 cells; type: cell-based; set-up: We treated MV4-11 cells with the synthesized degraders of FLT3; endogenous in cells; host or cells: MV4-11
T2 sequence (P36888 with tags, fused parts or gaps INS600HVDFREYEYD): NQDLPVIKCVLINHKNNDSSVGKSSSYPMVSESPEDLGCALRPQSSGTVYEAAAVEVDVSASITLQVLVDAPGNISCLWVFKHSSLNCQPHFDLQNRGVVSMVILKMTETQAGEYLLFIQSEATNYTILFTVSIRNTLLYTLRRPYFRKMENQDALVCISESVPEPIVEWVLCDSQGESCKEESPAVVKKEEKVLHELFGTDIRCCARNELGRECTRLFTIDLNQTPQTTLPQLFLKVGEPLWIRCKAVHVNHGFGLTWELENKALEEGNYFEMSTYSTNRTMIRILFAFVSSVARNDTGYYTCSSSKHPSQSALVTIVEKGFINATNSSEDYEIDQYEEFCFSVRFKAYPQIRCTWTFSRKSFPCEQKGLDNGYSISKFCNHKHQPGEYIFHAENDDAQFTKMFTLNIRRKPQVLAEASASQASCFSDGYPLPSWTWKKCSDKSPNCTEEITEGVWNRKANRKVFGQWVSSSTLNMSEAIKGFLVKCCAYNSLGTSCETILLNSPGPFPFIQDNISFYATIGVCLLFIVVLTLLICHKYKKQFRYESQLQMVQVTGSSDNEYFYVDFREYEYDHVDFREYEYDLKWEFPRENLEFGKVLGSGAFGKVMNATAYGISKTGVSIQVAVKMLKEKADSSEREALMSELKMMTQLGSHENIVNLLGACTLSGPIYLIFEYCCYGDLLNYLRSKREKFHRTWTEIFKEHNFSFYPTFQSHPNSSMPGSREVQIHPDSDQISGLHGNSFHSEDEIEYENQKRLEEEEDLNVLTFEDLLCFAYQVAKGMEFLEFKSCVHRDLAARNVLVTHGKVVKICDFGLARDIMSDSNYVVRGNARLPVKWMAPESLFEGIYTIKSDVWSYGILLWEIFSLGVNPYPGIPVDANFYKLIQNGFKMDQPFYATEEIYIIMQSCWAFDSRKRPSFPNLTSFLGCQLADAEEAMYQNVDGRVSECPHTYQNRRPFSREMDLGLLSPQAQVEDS
Description: We aimed to delineate if the FLT3 inhibitor part of MA191 acts as a MAPK14 inhibitor in MV4-11 cells. We used the phosphorylation of FLT3-ITD and the phosphorylation of MAPK14 as markers for their activation. […] This finding is consistent with the detection of MAPK14 in the kinase selectivity profiling approach (Figure 3; MAPK14 is termed p38α therein).
(§1) Figure 7 Targeting MAPK14 augments anti-leukemic effects of an inhibition of FLT3-ITD. (a) The graphs show the mRNA levels of MAPK14 in leukemia cells and normal blood cells. […] All immunoblots show data from at least two independent repetitions. (c) Model for how inhibition of various signaling pathways affects AML cells (red, cytoplasm, blue, nucleus).

FLT3-ITD [5] = target: T2, FLT3-ITD; experiment: FLT3-ITD degradation, immunoblot in MV4-11 cells; details: MV4-11 cells, 50 nM, 24 h
HL-60 = system: HL-60; set-up: method as in PMID 36332882; details: reported FLT3 PROTAC, Figure 1; cited from earlier work
caspase-3 = experiment: Caspase-3 cleavage, immunoblot in MV4-11 cells; type: cell-based, human
Description: The usefulness of a combined inhibition of FLT3-ITD and MAPK14 through depletion may also be effective against leukemia stem cells that require cytokines signaling through MAPK14 [48]. Further studies are necessary to test this idea.
as §1

T1 sequence (Q16539 2-360 limits assumed): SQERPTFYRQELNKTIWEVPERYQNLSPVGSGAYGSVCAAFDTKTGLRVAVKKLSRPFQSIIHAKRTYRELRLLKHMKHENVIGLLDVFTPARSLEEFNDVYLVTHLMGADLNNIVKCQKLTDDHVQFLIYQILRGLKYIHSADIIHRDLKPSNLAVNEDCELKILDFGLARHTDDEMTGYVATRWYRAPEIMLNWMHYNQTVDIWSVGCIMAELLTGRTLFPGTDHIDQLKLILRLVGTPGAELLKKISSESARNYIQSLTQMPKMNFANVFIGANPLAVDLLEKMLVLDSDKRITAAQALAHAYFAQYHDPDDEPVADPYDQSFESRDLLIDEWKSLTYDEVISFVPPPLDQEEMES

SMILES: CCc1nc(C(N)=O)c(Nc2ccc(N3CCC(N4CCN(CC5CCN(C(=O)CCOCCOCCNc6cccc7c6C(=O)N(C6CCC(=O)NC6=O)C7=O)CC5)CC4)CC3)c(OC)c2)nc1NC1CCOCC1 (centres unmarked) [CRBN(FLT3)-8]
- IC50 (MOLM-14): 2.8 nM
- IC50 (MV4-11): 0.9 nM

- % FLT3-ITD Binding at 1 µM (FLT3-ITD [1]): 97 ± 2%
- phosphorylated MAPK14 (p-MAPK14) (MAPK14 [2]): weak inhibition of phosphorylated MAPK14
- % FLT3-ITD Degradation at 50 nM (FLT3-ITD [5]): No effect
SMILES: Cc1ncsc1-c1ccc([C@H](C)NC(=O)[C@H]2C[C@H](O)CN2C(=O)[C@@H](NC(=O)[C@H]2CC[C@H](C(=O)N3CCN(CCNC(=O)c4cc(Oc5ccc(NC(=O)Nc6cc(C(C)(C)C)on6)cc5)ccn4)CC3)CC2)C(C)(C)C)cc1 [MA225, 4-(4-(3-(5-(tert-Butyl)isoxazol-3-yl)ureido)phenoxy)-N-(2-(4-(trans-4-(((S)-1-((2R,4S)-4-hydroxy-2-(((S)-1-(4-(4-methylthiazol-5-yl)phenyl)ethyl)carbamoyl)pyrrolidin-1-yl)-3,3-dimethyl-1-oxobutan-2-yl)carbamoyl)cyclohexanecarbonyl)piperazin-1-yl)ethyl)picolinamide]
- MAPK14 protein level, immunoblot (MAPK14 [3]): did not reduce the levels of FLT3-ITD and MAPK14
- phosphorylation of FLT3-ITD (FLT3-ITD [4]): inhibited the phosphorylation of FLT3-ITD
- FLT3-ITD degradation (FLT3-ITD [5]): did not reduce the levels of FLT3-ITD and MAPK14

SMILES: Cc1ncsc1-c1ccc(CNC(=O)[C@@H]2C[C@@H](O)CN2C(=O)[C@@H](NC(=O)COCCOCCNC(=O)c2c(C)[nH]c(/C=C3\C(=O)Nc4ccc(F)cc43)c2C)C(C)(C)C)cc1 [PROTAC5]
- IC50 (HL-60): 2900 ± 1500 nM

- phosphorylation of FLT3-ITD (FLT3-ITD [4]): did not affect FLT3-ITD and its activity
SMILES: Cc1ccc(-n2nc(C(C)(C)C)cc2NC(=O)Nc2ccc(OCCN3CCOCC3)c3ccccc23)cc1 [doramapimod, reference compound]
- caspase-3 cleavage (caspase-3): did not induce caspase-3 cleavage
